The test has as its system A549 cells. The experiment in a line: [3H]-2DG uptake assay in A549 cells. To be noted: 10 min incubation with compound, mean ± s.d., n = 3. Type of test: cell-based, human. As for the experimental part:
To determine which of the 17 rapafucin hits inhibited the transporter activity of GLUT1, an orthogonal glucose uptake assay using 2-deoxy-D-[3H] glucose ([3H]-2DG), a nonhydrolyzable, radioactive glucose analog, was employed. Each hit was separately incubated with A549 cells for 10 min before the amount of [3H]-2DG taken up by the cells was measured using scintillation counting. […] The effect of JW11-D2 on uptake of [3H]-2DG in human red blood cells that exclusively express GLUT1 was then determined. Helgerson and Carruthers, J. Biol. Chem. 1987, 262, 5464-5475. […] To further improve the potency of JW11-D2, a structure-activity relationship (SAR) study was performed by synthesizing 21 new analogs of JW11-D2 using different amino acid building blocks.
The inhibitory activity of compounds on glucose transport was analyzed by measuring the cell uptake of [3H]-2DG as previously described. Ulanovskaya et al., Chem. Biol. 2011, 18, 222-230. Briefly, cells were washed twice and incubated in low-glucose medium for 10 min. Cells were added drugs and incubated for another 10 min before adding [3H]-2DG. After 10 min incubation with [3H]-2DG, cells were washed twice and lysed with 0.2 N NaOH plus 0.2% SDS. The cell lysate was transferred to a new tube containing 1 mL of optiphase supermix. Glucose uptake was quantified with a scintillation counter.

By IC50 is commonly meant the concentration at which inhibition is half-maximal.

Structures are written as SMILES.

As for `CCC(C)C1C(=O)NCC(=O)N(C)CCC=CC(=O)OCC(C)(C)C(=O)C(=O)N2CCCCC2C(=O)OC(CCc2ccc(OC)c(OC)c2)c2cccc(c2)NC(=O)CCC(=O)N(C)C(C(C)C)C(=O)NC(Cc2ccccc2)C(=O)N1C` (centres unmarked) [JW11-D2-20], the IC50 was found to be 62.3 ± 5.1 nM.
Under `CCC(C)C1C(=O)NCC(=O)N(C)CCC=CC(=O)OCC(C)(C)C(=O)C(=O)N2CCCCC2C(=O)OC(CCc2ccc(OC)c(OC)c2)c2cccc(c2)NC(=O)CCC(=O)N(C)C(CC(C)C)C(=O)NC(Cc2ccc(O)cc2)C(=O)N1C` (centres unmarked) [JW11-D2-13] stands greater than 3000 nM; under `CCCC1C(=O)NC(Cc2ccccc2)C(=O)N(C)C(C(C)CC)C(=O)NCC(=O)N(C)CCC=CC(=O)OCC(C)(C)C(=O)C(=O)N2CCCCC2C(=O)OC(CCc2ccc(OC)c(OC)c2)c2cccc(c2)NC(=O)CCC(=O)N1C` (centres unmarked) [JW11-D2-18], greater than 3000 nM; under `CCCCC1C(=O)NCC(=O)N(C)CCC=CC(=O)OCC(C)(C)C(=O)C(=O)N2CCCCC2C(=O)OC(CCc2ccc(OC)c(OC)c2)c2cccc(c2)NC(=O)CCC(=O)N(C)C(CC(C)C)C(=O)NC(Cc2ccccc2)C(=O)N1C` (centres unmarked) [JW11-D2-7], greater than 3000 nM.
Under `CCC(C)C1C(=O)NCC(=O)N(C)CCC=CC(=O)OCC(C)(C)C(=O)C(=O)N2CCCCC2C(=O)OC(CCc2ccc(OC)c(OC)c2)c2cccc(c2)NC(=O)CCC(=O)N(C)C(CC(C)C)C(=O)N(C)C(Cc2ccccc2)C(=O)N1C` (centres unmarked) [JW11-D2-14] stands 38.5 ± 4.7 nM.
As for `CCCC1C(=O)NCC(=O)N(C)CCC=CC(=O)OCC(C)(C)C(=O)C(=O)N2CCCCC2C(=O)OC(CCc2ccc(OC)c(OC)c2)c2cccc(c2)NC(=O)CCC(=O)N(C)C(CC(C)C)C(=O)NC(Cc2ccccc2)C(=O)N1C` (centres unmarked) [JW11-D2-8], the IC50 was greater than 3000 nM.
Under `CCC(C)C1C(=O)N2CCCC2C(=O)N(C)CCC=CC(=O)OCC(C)(C)C(=O)C(=O)N2CCCCC2C(=O)OC(CCc2ccc(OC)c(OC)c2)c2cccc(c2)NC(=O)CCC(=O)N(C)C(CC(C)C)C(=O)NC(Cc2ccccc2)C(=O)N1C` (centres unmarked) [JW11-D2-3] stands greater than 3000 nM; under `CCC(C)C1C(=O)NCC(=O)N(C)CCC=CC(=O)OCC(C)(C)C(=O)C(=O)N2CCCCC2C(=O)OC(CCc2ccc(OC)c(OC)c2)c2cccc(c2)NC(=O)CCC(=O)N(C)C(Cc2ccccc2)C(=O)NC(Cc2ccccc2)C(=O)N1C` (centres unmarked) [JW11-D2-21], greater than 3000 nM; under `COc1ccc(CCC2OC(=O)C3CCCCN3C(=O)C(=O)C(C)(C)COC(=O)C=CCCN(C)C(=O)CNC(=O)C(C(C)C)N(C)C(=O)C(Cc3ccccc3)NC(=O)C(CC(C)C)N(C)C(=O)CCC(=O)Nc3cccc2c3)cc1OC` (centres unmarked) [JW11-D2-4], 30.2 ± 2.3 nM.
As for `CCC(C)C1C(=O)NC(Cc2ccccc2)C(=O)N(C)C(C(C)CC)C(=O)NCC(=O)N(C)CCC=CC(=O)OCC(C)(C)C(=O)C(=O)N2CCCCC2C(=O)OC(CCc2ccc(OC)c(OC)c2)c2cccc(c2)NC(=O)CCC(=O)N1C` (centres unmarked) [JW11-D2-17], the IC50 was greater than 3000 nM.
Turning to `CCC(C)C1C(=O)NCC(=O)N(C)CCC=CC(=O)OCC(C)(C)C(=O)C(=O)N2CCCCC2C(=O)OC(CCc2ccc(OC)c(OC)c2)c2cccc(c2)NC(=O)CCC(=O)N(C)C(CC(C)C)C(=O)NC(CCc2ccccc2)C(=O)N1C` (centres unmarked) [JW11-D2-10], the IC50 was greater than 3000 nM.
With `CCC(C)C1C(=O)N(C)CC(=O)N(C)CCC=CC(=O)OCC(C)(C)C(=O)C(=O)N2CCCCC2C(=O)OC(CCc2ccc(OC)c(OC)c2)c2cccc(c2)NC(=O)CCC(=O)N(C)C(CC(C)C)C(=O)NC(Cc2ccccc2)C(=O)N1C` (centres unmarked) [JW11-D2-1], the IC50 is greater than 3000 nM.
As to `COc1ccc(CCC2OC(=O)C3CCCCN3C(=O)C(=O)C(C)(C)COC(=O)C=CCCN(C)C(=O)CNC(=O)C(CC(C)C)N(C)C(=O)C(Cc3ccccc3)NC(=O)C(CC(C)C)N(C)C(=O)CCC(=O)Nc3cccc2c3)cc1OC` (centres unmarked) [JW11-D2-9], the IC50 is greater than 3000 nM.
`CCCCC1C(=O)NC(Cc2ccccc2)C(=O)N(C)C(C(C)CC)C(=O)NCC(=O)N(C)CCC=CC(=O)OCC(C)(C)C(=O)C(=O)N2CCCCC2C(=O)OC(CCc2ccc(OC)c(OC)c2)c2cccc(c2)NC(=O)CCC(=O)N1C` (centres unmarked) [JW11-D2-19]: the IC50 is greater than 3000 nM.
In the case of `CCC(C)C1C(=O)N2CCCC2C(=O)N(C)CCC=CC(=O)OCC(C)(C)C(=O)C(=O)N2CCCCC2C(=O)OC(CCc2ccc(OC)c(OC)c2)c2cccc(c2)NC(=O)CCC(=O)N(C)C(CC(C)C)C(=O)NC(Cc2ccccc2)C(=O)N1C` (centres unmarked) [JW11-D2-2], the IC50 was greater than 3000 nM.
Regarding `CCC(C)C1C(=O)NCC(=O)N(C)CCC=CC(=O)OCC(C)(C)C(=O)C(=O)N2CCCCC2C(=O)OC(CCc2ccc(OC)c(OC)c2)c2cccc(c2)NC(=O)CCC(=O)NC(CC(C)C)C(=O)NC(Cc2ccccc2)C(=O)N1C` (centres unmarked) [JW11-D2-16], the IC50 was greater than 3000 nM.
As for `CCC(C)C1C(=O)NCC(=O)N(C)CCC=CC(=O)OCC(C)(C)C(=O)C(=O)N2CCCCC2C(=O)OC(CCc2ccc(OC)c(OC)c2)c2cccc(c2)NC(=O)CCC(=O)N(C)C(CC(C)C)C(=O)NC(CC(C)C)C(=O)N1C` (centres unmarked) [JW11-D2-15], the IC50 was greater than 3000 nM.

The values above are taken from patent publication US12649980B2, “Three-dimensional surface for protein and small molecule microarrays” (The Johns Hopkins University, priority 2019, dated 2026).
